Reference: patent US6914045B2, “Glycopeptide antibiotics” (Wyeth Holdings Corporation, priority 2001, dated 2005)

Experiments:
Streptococcus sp. = assay: in vitro antibacterial evaluation, MIC by broth dilution; type: cell-based; conditions: broth dilution, 18 hours at 35° C.
Outline: (§1)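 Inoculum 5×10^5 CFU/mL; concentrations 64 to 0.06 μg/mL; MIC defined as lowest inhibitory level. Conducted by broth dilution under NCCLS guidelines.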

Staphylococcus sp. = assay: as above; type: cell-based; conditions: broth dilution, 18 hours at 35° C.
Outline: as §1

Enterococcus sp. = assay: as above; type: cell-based; conditions: broth dilution, 18 hours at 35° C.
Outline: as §1

Escherichia coli = assay: as above; type: cell-based; conditions: 18 hours at 35° C.
[1] = test system: Staphylococcus aureus-SMITH (GC 4543); assay: acute lethal infection in mice; type: in vivo; conditions: acute lethal infection, female CD-1 mice, intraperitoneal challenge, intravenous 30 min. after infection, 7 day survival
Outline: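 Survival at 7 days, pooled from three independent tests, yields ED50 values. Treatment is intravenous, 30 min after ip infection of female CD-1 mice, using an inoculum lethal to untreated controls within 24-48 hr.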

CCCOc1ccc(COCC2OC(OC3C(CO)OC(Oc4ccc(CC5NC(=O)C(C(C)c6ccccc6)NC(=O)CNC(=O)C(CO)NC(=O)C(C(O)C6CNC(=N)N6C6OC(CO)C(O)C(O)C6O)NC(=O)C(C(O)C6CNC(=N)N6)NC5=O)cc4)C(O)C3O)C(O)C(O)C2O)cc1 (stereo not drawn) [Example 235, Cyclo[glycyl-β-methylphenylalanyl-O-[4-O-[6-O-(4-propoxybenzyl)hexopyranosyl]hexopyranosyl]tyrosyl-3-(2-iminoimidazolidin-4-yl)seryl-3-(3-hexopyranosyl-2-iminoimidazolidin-4-yl)serylseryl]]
<0.06 µg/mL: MIC Streptococcus pneumoniae (GC 1894) (Streptococcus sp.) | MIC Streptococcus pneumoniae (GC 1894) (Streptococcus sp.; inoculum 5×10^5 CFU/mL, strain GC 1894)
0.5 to 2 µg/mL: MIC Staphylococcus aureus (GC 3051) (Staphylococcus sp.) | MIC Staphylococcus aureus (GC 4542) (Staphylococcus sp.) | MIC Staphylococcus aureus (GC 3051) (Staphylococcus sp.; strain GC 3051) | MIC Staphylococcus aureus (GC 4542) (Staphylococcus sp.; strain GC 4542) | MIC Enterococcus faecium (GC 4557) (Enterococcus sp.) | MIC Enterococcus faecium (GC 4557) (Enterococcus sp.; strain GC 4557)
4 µg/mL: MIC Enterococcus avium (GC 4558) (Enterococcus sp.) | MIC Enterococcus faecalis (ATCC 29212) (Enterococcus sp.) | MIC Enterococcus faecalis (GC 2242) (Enterococcus sp.) | MIC Enterococcus faecalis (GC 2691) (Enterococcus sp.) | MIC Enterococcus faecalis (GC 4552) (Enterococcus sp.) | MIC Enterococcus faecalis (GC 4553) (Enterococcus sp.) | MIC Enterococcus faecalis (GC 6189) (Enterococcus sp.) | MIC Enterococcus faecium (GC 2243) (Enterococcus sp.) | MIC Enterococcus faecium (GC 4556) (Enterococcus sp.) | MIC Enterococcus faecalis (ATCC 29212) (Enterococcus sp.; strain ATCC 29212) | MIC Enterococcus faecium (GC 2243) (Enterococcus sp.; strain GC 2243) | MIC Enterococcus faecalis (GC 4552) (Enterococcus sp.; strain GC 4552) | MIC Enterococcus faecalis (GC 4553) (Enterococcus sp.; strain GC 4553) | MIC Enterococcus faecium (GC 4556) (Enterococcus sp.; strain GC 4556) | MIC Enterococcus avium (GC 4558) (Enterococcus sp.; strain GC 4558) | MIC Enterococcus faecalis (GC 6189) (Enterococcus sp.; strain GC 6189) | MIC Enterococcus faecalis (GC 2242) (Enterococcus sp.; inoculum 5×10^5 CFU/mL, strain GC 2242) | MIC Enterococcus faecalis (GC 2691) (Enterococcus sp.; inoculum 5×10^5 CFU/mL, strain GC 2691)
4 to 8 µg/mL: MIC Enterococcus faecalis (GC 3059) (Enterococcus sp.) | MIC Enterococcus faecalis (GC 4554) (Enterococcus sp.) | MIC Enterococcus faecalis (GC 4554) (Enterococcus sp.; strain GC 4554) | MIC Enterococcus faecalis (GC 3059) (Enterococcus sp.; inoculum 5×10^5 CFU/mL, strain GC 3059)
0.12 µg/mL: MIC Streptococcus pneumoniae (ATCC 6301) (Streptococcus sp.) | MIC Streptococcus pneumoniae (ATCC 6301) (Streptococcus sp.; inoculum 5×10^5 CFU/mL, strain ATCC 6301)
0.25 to 0.5 µg/mL: MIC Streptococcus agalactiae (GC 4564) (Streptococcus sp.) | MIC Streptococcus agalactiae (GC 4564) (Streptococcus sp.; inoculum 5×10^5 CFU/mL, strain GC 4564) | MIC Coagulase Negative Staphylococcus (GC 4548) (Staphylococcus sp.) | MIC Coagulase Negative Staphylococcus (GC 4549) (Staphylococcus sp.) | MIC Coagulase Negative Staphylococcus (GC 6257) (Staphylococcus sp.) | MIC Staphylococcus haemolyticus (GC 4546) (Staphylococcus sp.) | MIC Staphylococcus haemolyticus (GC 4546) (Staphylococcus sp.; strain GC 4546) | MIC Coagulase Negative Staphylococcus (GC 4548) (Staphylococcus sp.; strain GC 4548) | MIC Coagulase Negative Staphylococcus (GC 4549) (Staphylococcus sp.; strain GC 4549) | MIC Coagulase Negative Staphylococcus (GC 6257) (Staphylococcus sp.; strain GC 6257)
0.59 mg/kg: median effective dose (ED50), Staphylococcus aureus-SMITH (GC 4543) [1]
<0.06 to 0.12 µg/mL: MIC Streptococcus pneumoniae (GC 4565) (Streptococcus sp.) | MIC Streptococcus pneumoniae (GC 4565) (Streptococcus sp.; inoculum 5×10^5 CFU/mL, strain GC 4565)
0.5 to 1 µg/mL: MIC Coagulase Negative Staphylococcus (GC 4547) (Staphylococcus sp.) | MIC Coagulase Negative Staphylococcus (GC 4551) (Staphylococcus sp.) | MIC Staphylococcus aureus (ATCC 29213) (Staphylococcus sp.) | MIC Staphylococcus aureus (GC 4541) (Staphylococcus sp.) | MIC Staphylococcus aureus-SMITH (GC 4543) (Staphylococcus sp.) | MIC Staphylococcus aureus (ATCC 29213) (Staphylococcus sp.; strain ATCC 29213) | MIC Staphylococcus aureus (GC 4541) (Staphylococcus sp.; strain GC 4541) | MIC Staphylococcus aureus-SMITH (GC 4543) (Staphylococcus sp.; strain GC 4543) | MIC Coagulase Negative Staphylococcus (GC 4547) (Staphylococcus sp.; strain GC 4547) | MIC Coagulase Negative Staphylococcus (GC 4551) (Staphylococcus sp.; strain GC 4551) | MIC Escherichia coli (GC 4560) (Escherichia coli)
0.25 µg/mL: MIC Streptococcus pyogenes (GC 4563) (Streptococcus sp.) | MIC Streptococcus pyogenes (GC 4563) (Streptococcus sp.; inoculum 5×10^5 CFU/mL, strain GC 4563)
1 to 2 µg/mL: MIC Staphylococcus aureus (GC 1131) (Staphylococcus sp.) | MIC Staphylococcus aureus (GC 3053) (Staphylococcus sp.) | MIC Staphylococcus aureus (GC 4544) (Staphylococcus sp.) | MIC Staphylococcus aureus (GC 4545) (Staphylococcus sp.) | MIC Staphylococcus aureus (GC 1131) (Staphylococcus sp.; strain GC 1131) | MIC Staphylococcus aureus (GC 3053) (Staphylococcus sp.; strain GC 3053) | MIC Staphylococcus aureus (GC 4544) (Staphylococcus sp.; strain GC 4544) | MIC Staphylococcus aureus (GC 4545) (Staphylococcus sp.; strain GC 4545)
